PubChem BioAssay AID302 (DTP/NCI, 2004)
“And” between values parts separate entries of the source, which are not always exact repeats. Equal values may be shown once. Inconclusive results and toxic doses are left out. How the source made its calls: active means survival T/C of 150% or more; inactive means T/C below 125% in these data. Starred links: 1 amine or outer side, 2 acyl side, 3 side chain; linkers in the order of their positions; H or OH if unused. Positions of bridges follow the written chain, without caps; N, C: chain ends. Non-standard residues stand in square brackets, D forms with d. Residues, ends and D or L forms follow the SMILES beside them. Chains are numbered I, II in the order given. Actinocin(9to1) = Cc1c2oc3c(C)ccc(C(=O)[*:1])c3nc-2c(C(=O)[*:2])c(N)c1=O; NMeV = CN[CH](C(=O)O)C(C)C; Sar = CNCC(=O)O

Tested on: BALB/c mice, Madison 109 lung carcinoma i.m., survival
Assay: NCI In Vivo Anticancer Drug Screen. Data for tumor model Madison 109 Lung Carcinoma (intramuscular) in BALB/CM mice
Conditions: endpoint: median survival time, schedule: Q01DX009 (ip), higher = longer survival
Description: The antitumor activity of compounds was measured in mice bearing transplantable tumors. Survival or tumor size were measured and the results are expressed as the measurement made in the treated group (T) divided by the measurement made in the vehicle treated control group (C). The tumor model used in this assay is Madison 109 Lung Carcinoma (intramuscular) in BALB/CM mice

[1] = dose: 4.0 mg/kg/injection, vehicle: saline with Tween-80
[2] = dose: 32.0 mg/kg/injection, vehicle: saline with Tween-80
[3] = dose: 64.0 mg/kg/injection, vehicle: saline with Tween-80
[4] = dose: 8.0 mg/kg/injection, vehicle: saline with Tween-80
[5] = dose: 16.0 mg/kg/injection, vehicle: saline with Tween-80
[6] = dose: 2.0 mg/kg/injection, vehicle: saline with Tween-80
[7] = dose: 0.5 mg/kg/injection, vehicle: saline with Tween-80
[8] = dose: 8.0 mg/kg/injection, vehicle: saline
[9] = dose: 16.0 mg/kg/injection, vehicle: saline
[10] = dose: 25.0 mg/kg/injection, vehicle: saline
[11] = dose: 100.0 mg/kg/injection, vehicle: saline
[12] = dose: 12.5 mg/kg/injection, vehicle: saline
[13] = dose: 50.0 mg/kg/injection, vehicle: saline
[14] = dose: 25.0 mg/kg/injection, vehicle: saline with Tween-80
[15] = dose: 50.0 mg/kg/injection, vehicle: saline with Tween-80
[16] = dose: 100.0 mg/kg/injection, vehicle: saline with Tween-80
[17] = dose: 200.0 mg/kg/injection, vehicle: saline with Tween-80
[18] = dose: 400.0 mg/kg/injection, vehicle: saline with Tween-80
[19] = dose: 12.5 mg/kg/injection, vehicle: saline with Tween-80
[20] = dose: 5.0 mg/kg/injection, vehicle: saline with Tween-80
[21] = dose: 10.0 mg/kg/injection, vehicle: saline with Tween-80

Measured: T/C

CC(C)NCC(O)COc1cccc2ccccc12 (stereo not drawn)
inactive: [1] 111 % of control | [2] 124 % of control | [3] 120 % of control

CCN(CC)CCCC(C)Nc1c2ccc(Cl)cc2nc2ccc(OC)cc12 (stereo not drawn)
inactive: [4] 106 % of control | [5] 114 % of control | [2] 104 % of control | [3] 107 % of control

Nc1ncnc2nc[nH]c12
inactive: [6] 120 % of control | [1] 119 % of control | [4] 101 % of control and 108 % of control | [5] 90 % of control and 117 % of control and 120 % of control

Nc1ccnc(=O)[nH]1
inactive: [2] 111 % of control and 115 % of control | [3] 98 % of control and 105 % of control | dose: 128.0 mg/kg/injection, vehicle: saline with Tween-80 104 % of control and 105 % of control | dose: 256.0 mg/kg/injection, vehicle: saline with Tween-80 93 % of control and 105 % of control | dose: 512.0 mg/kg/injection, vehicle: saline with Tween-80 115 % of control and 117 % of control

CCOC(=O)NC1=C(N2CC2)C(=O)C(NC(=O)OCC)=C(N2CC2)C1=O
inactive: dose: 0.12 mg/kg/injection, vehicle: saline with Tween-80 99 % of control and 102 % of control and 111 % of control | dose: 0.25 mg/kg/injection, vehicle: saline with Tween-80 105 % of control and 111 % of control | [7] 103 % of control and 105 % of control

CC1=C(/C=C/C(C)=C/C=C/C(C)=C/C(=O)O)C(C)(C)CCC1
inactive: dose: 0.5 mg/kg/injection, vehicle: saline 107 % of control | dose: 1.0 mg/kg/injection, vehicle: saline 110 % of control | dose: 2.0 mg/kg/injection, vehicle: saline 100 % of control | dose: 4.0 mg/kg/injection, vehicle: saline 93 % of control and 94 % of control | [8] 98 % of control and 100 % of control | [9] 108 % of control | dose: 32.0 mg/kg/injection, vehicle: saline 104 % of control

COC1=C(N)C(=O)c2nc(-c3nc(C(=O)O)c(C)c(-c4ccc(OC)c(OC)c4O)c3N)ccc2C1=O
inactive: dose: 0.01 mg/kg/injection, vehicle: saline with Tween-80 95 % of control | dose: 0.02 mg/kg/injection, vehicle: saline with Tween-80 95 % of control | dose: 0.04 mg/kg/injection, vehicle: saline with Tween-80 92 % of control | dose: 0.16 mg/kg/injection, vehicle: saline with Tween-80 93 % of control

CC(=O)OCC1OC(OC(C)=O)C(NC(=O)N(CCCl)N=O)C(OC(C)=O)C1OC(C)=O (stereo not drawn)
inactive: [7] 100 % of control and 111 % of control | dose: 1.0 mg/kg/injection, vehicle: saline with Tween-80 92 % of control and 102 % of control and 109 % of control | [6] 94 % of control and 112 % of control | [1] 110 % of control and 118 % of control

CNNCc1ccc(C(=O)NC(C)C)cc1
inactive: [10] 116 % of control | [11] 114 % of control

O=C1C=CC(=O)O1 (tested in a mixture with another compound)
inactive: [12] 113 % of control | [10] 110 % of control | [13] 104 % of control | [11] 110 % of control

CC(=O)Nc1ccc(/C=N/NC(N)=S)cc1
inactive: [14] 106 % of control and 108 % of control | [15] 94 % of control and 108 % of control | [16] 92 % of control and 124 % of control | [17] 89 % of control | [18] 113 % of control and 114 % of control

CN(C)c1nc(N(C)C)nc(N(C)C)n1
inactive: [19] 104 % of control | [14] 90 % of control and 103 % of control | [15] 97 % of control and 102 % of control | [16] 99 % of control

CN(C)C=O
inactive: [12] 102 % of control | [10] 101 % of control and 105 % of control | [13] 101 % of control and 115 % of control | [11] 92 % of control and 101 % of control and 120 % of control | dose: 200.0 mg/kg/injection, vehicle: saline 96 % of control and 106 % of control | dose: 800.0 mg/kg/injection, vehicle: saline 116 % of control and 120 % of control | dose: 1600.0 mg/kg/injection, vehicle: saline 107 % of control

C[C@]12C=CC(=O)C=C1CC[C@@H]1[C@@H]2C(=O)C[C@@]2(C)[C@H]1CC[C@]2(O)C(=O)CO
inactive: [20] 95 % of control | [21] 98 % of control | dose: 20.0 mg/kg/injection, vehicle: saline with Tween-80 97 % of control | dose: 40.0 mg/kg/injection, vehicle: saline with Tween-80 92 % of control | dose: 80.0 mg/kg/injection, vehicle: saline with Tween-80 92 % of control

O=[N+]([O-])c1ccc([N+](=O)[O-])c(Cl)c1
inactive: dose: 2.5 mg/kg/injection, vehicle: saline with Tween-80 101 % of control | [20] 97 % of control | [21] 99 % of control

c1ccc([C@H]2CN3CCSC3=N2)cc1
inactive: dose: 5.0 mg/kg/injection, vehicle: saline 94 % of control | dose: 10.0 mg/kg/injection, vehicle: saline 96 % of control | dose: 20.0 mg/kg/injection, vehicle: saline 103 % of control

O=C1C2(Cl)C3(Cl)C4(Cl)C(Cl)(Cl)C5(Cl)[C@]3(Cl)C1(Cl)[C@]5(Cl)C24Cl (stereo partly drawn)
inactive: dose: 3.12 mg/kg/injection, vehicle: saline with Tween-80 112 % of control | dose: 6.25 mg/kg/injection, vehicle: saline with Tween-80 118 % of control | [19] 121 % of control

Cc1c2oc3c(C)ccc(C(=O)NC4C(=O)NC(C(C)C)C(=O)N5CCCC5C(=O)N(C)CC(=O)N(C)C(C(C)C)C(=O)OC4C)c3nc-2c(C(=O)NC2C(=O)NC(C(C)C)C(=O)N3CCCC3C(=O)N(C)CC(=O)N(C)C(C(C)C)C(=O)OC2C)c(N)c1=O (stereo not drawn) (I: TVP[Sar][NMeV] / II: TVP[Sar][NMeV]; ester I:1-I:C, II:1-II:C; linker I:N-II:N via Actinocin(9to1); configuration not given here)
inactive: dose: 0.03 mg/kg/injection, vehicle: saline 101 % of control | dose: 0.06 mg/kg/injection, vehicle: saline 107 % of control | dose: 0.12 mg/kg/injection, vehicle: saline 101 % of control | dose: 0.25 mg/kg/injection, vehicle: saline 119 % of control

NNC(=O)c1ccncc1
inactive: [8] 101 % of control | [9] 111 % of control | dose: 64.0 mg/kg/injection, vehicle: saline 107 % of control | dose: 128.0 mg/kg/injection, vehicle: saline 108 % of control

Nc1n[nH]c(N)n1
inactive: [16] 93 % of control | [17] 101 % of control | [18] 104 % of control | dose: 800.0 mg/kg/injection, vehicle: saline with Tween-80 110 % of control | dose: 1600.0 mg/kg/injection, vehicle: saline with Tween-80 108 % of control

CN(C)/N=N/c1nc[nH]c1C(N)=O
inactive: [14] 124 % of control | [15] 119 % of control | [16] 108 % of control

CCOC(=O)CC(SP(=S)(OC)OC)C(=O)OCC (stereo not drawn)
inactive: [14] 108 % of control | [15] 112 % of control | [16] 121 % of control | [17] 96 % of control

O=S(=O)(O)O
inactive: [4] 109 % of control | [5] 108 % of control | [2] 111 % of control | [3] 112 % of control

O=c1ccc2ccccc2o1
inactive: [14] 118 % of control | [15] 105 % of control and 111 % of control | [16] 100 % of control and 111 % of control | [17] 113 % of control
